Laboratory results from patent US9494867B2, “Rinsing liquid for lithography and pattern forming method using same” (AZ ELECTRONIC MATERIALS (LUXEMBOURG) S.A.R.L., priority 2013, dated 2016).

Test: Measurement of surface tension of rinse solution
Format: physicochemical
Conditions: rinse solution containing 1,000 ppm of the additive
Procedure: A surface tension measurement of a prepared rinse solution was conducted using the surface tensiometer CBVP-Z manufactured by Kyowa interface science Co., LTD.

Q: Which “Surface tension of the rinse solution” value does the source give for `CC(O)C=CC(C)O` (stereo not shown) [HXED, 3-hexene-2,5-diol] here?
A: Its value is 66.5 mN/m.

Test: Measurement of maximum dissolution quantity in water
Format: physicochemical
Conditions: water of 25° C.
Procedure: Different amounts of an additive agent for a rinse solution are added between transparent screws and in each cases water is further added as the total amount of the additive agent and water is made 100 g. These are mixed at 25° C. for 10 hours or more by using a stealer and left at rest for some time at this temperature. The state of dissolution thereof is observed by eyes and the maximum amount of the additive agent wherein insoluble matter is not observed in the solution is defined as a maximum dissolution quantity (ppm).

Q: Which “Maximum dissolution quantity of additives in water” value (from here on “Maximum dissolution quantity”) does the source give for `OCCCCO` [1,4-butanediol, reference compound] here?
A: The value was >10,000 ppm.

Q: For `OCC#CCO` [BTD, 1,4-butynediol], which “Maximum dissolution quantity” value is on record?
A: Its value is >10,000 ppm.

Q: With `OCC1CCC(CO)CC1` (stereo not shown) [CHDM, 1,4-cyclohexanedimethanol, reference compound] as the compound, how does the “Maximum dissolution quantity” value read?
A: The value was >10,000 ppm.

Q: For `CC(C)(O)C#CC(C)(C)O` [DMHD, 2,5-dimethyl-3-hexyne-2,5-diol], which “Maximum dissolution quantity” value is on record?
A: The value was >10,000 ppm.

Q: With `CCC(C)(O)C#CC(C)(O)CC` (stereo not shown) [DMOD, 3,6-dimethyl-4-octyn-3,6-diol] as the compound, how does the “Maximum dissolution quantity” value read?
A: Its value is >10,000 ppm.

Q: Which “Maximum dissolution quantity” value does the source give for `CCOC(O)C#CC(O)OCC` (stereo not shown) [DODD, 3,8-dioxa-5-decyne-4,7-diol, reference compound] here?
A: Its value is >10,000 ppm.

Q: For `OCC#CC#CCO` [HXDD, 2,4-hexadiyn-1,6-diol], which “Maximum dissolution quantity” value is on record?
A: The value was >10,000 ppm.

Q: Which “Maximum dissolution quantity” value does the source give for `CC(O)C#CC(C)O` (stereo not shown) [HXYD, 3-hexyne-2,5-diol] here?
A: The value was >10,000 ppm.

Q: With `OCc1cccc(CO)c1` [MXG, 1,3-benzendimethanol] as the compound, how does the “Maximum dissolution quantity” value read?
A: The value was >10,000 ppm.

Q: With `OCc1ccccc1CO` [OXG, 1,2-benzendimethanol] as the compound, how does the “Maximum dissolution quantity” value read?
A: The value was >10,000 ppm.

Q: With `OCc1ccc(CO)cc1` [PXG, p-xylylene glycol] as the compound, how does the “Maximum dissolution quantity” value read?
A: The value was >10,000 ppm.

Test: Storage stability test of rinse solution
Format: physicochemical
Set-up: key: when the defect number of the test rinse solution is equal to or less than that of the rinse solution of the deionized water, it is evaluated as ‘O’; when the number is more than that of the deionized water, it is evaluated as ‘X’
Conditions: additive concentrations more than 3,000 ppm
Procedure: A rinse solution prepared in a predetermined concentration is filtered through a filter and left at rest at 25° C. for one month. A chemically amplified KrF resist composition AZ DX6270P manufactured by AZ Electronic Materials Manufacturing (Japan) K. K. is spin-coated on a silicon wafer and soft-baked at 120° C. for 90 seconds to form a resist film of 620 nm in thickness. The rinse solution after preservation is applied on the resist film and the wafer is rotated at a very high speed to dry it. The total defect numbers of all defects including gel defects and particle defects on this film are measured using a defect inspection apparatus KLA2360 manufactured by KLA Tencor corporation. The number of defects when the preserved test rinse solution is used as a rinse solution is compared with that when the preserved rinse solution consisting of only a deionized water is used (see Comparative example 1) and when the defect number of the test rinse solution is equal to or less than that of the rinse solution of the deionized water, it is evaluated as ‘O’ and when the number is more than that of the deionized water, it is evaluated as ‘X’.

Q: With `CCOC(O)C#CC(O)OCC` (stereo not shown) [DODD, 3,8-dioxa-5-decyne-4,7-diol, reference compound] as the compound, how does the Storage stabilities read?
A: The Storage stabilities was “X”.
